Measurements published in patent US9821000B2, “Compounds, compositions and corresponding uses for preventing and/or treating of dyslipidemia” (CENTRE NATIONAL DE LA RECHERCHE SCIENTIFIQUE (CNRS), priority 2013, dated 2017).
Entries after “also recorded” stand apart in the source; their conditions may differ.

What was measured:
hem1Δ yeasts = test: Restoration of growth of lipo-intoxicated hem1Δ yeasts (drop test on agar); type: cell-based, Saccharomyces cerevisiae; settings: SFA accumulation conditions; 5 μl drops on agar; after three days
Description: FIG. 3B—The hem1Δ yeasts were cultivated in conditions of SFA accumulation as indicated. 5 μl drops of OAG, LPA and oleic acid in the concentrations indicated were then deposited on the surface of the agar medium. The restoration of growth of the hem1Δ yeasts is observed in the formation of colonies after three days.
The strain carrying the hem1Δ strain is cultivated, under aerobic conditions, under stirring and at 28° C., in a YPG^A liquid medium (YPG (yeast extract 1% (m/v), peptone 1% (m/v) and glucose 2% (m/v)) supplemented with δ-aminolevulinic acid (ALA) at 80 μg/mL). Lipotoxicity by saturated fatty acids (SFA) is prompted by depletion of unsaturated fatty acids (UFA)—the synthesis of which is dependent on the presence of haem (prosthetic grouping of the enzyme Ole1p especially)—by transfer into YPG^+ medium (YPG supplemented with ergosterol at 80 μg/mL to compensate for the depletion in sterol obtained under these conditions). The lipotoxicity can be induced in a solid medium YPG^++agar 2% (m/v) in transferring 3500 cells (hem1Δ coming from a pre-culture in YPG^A)/cm^2 or *alternatively in a liquid medium in inoculating 2·10^6 cells/mL of YPG^+. Classically, the effects of lipotoxicity on SFA are analyzed 7 h after the transfer into YPG^+ medium. The capacity of a compound to counter the deleterious effects of lipotoxicity with SFA is for its part evaluated successively with the addition of this compound on (or in) the YPG^+ transfer medium after seeding with cells.
1) Screening of compounds: Following the induction of lipotoxicity with SFA (for hem1Δ cultivated in a solid medium), 5 μL drops of solutions of different compounds at 10 mM in dimethylsulfoxide (DMSO) or in ethanol (EtOH) are deposited on the surface of agar. The capacity of a compound to counter the lipo-induced stoppage of cell growth is estimated by the appearance of a halo of hem1Δ colonies at the position of the deposit of said compound after three days of culture at 28° C. (cf. Deguil et al., 2011).

[1] = tested on: BRIN-BD11 pancreatic β-cells; test: Cell viability test (propidium iodide, flow cytometry) of pancreatic β-cells lipo-intoxicated by palmitic acid; type: cell-based, rat; settings: BRIN-BD11, palmitic acid 200 μM, growing concentrations of compound
Description: (§1) The BRIN-BD11 pancreatic β-cells were cultivated in controlled conditions or in the presence of an exogenous source of saturated fatty acids (palmitic acid 200 μM), as described by Dhayal& Morgan (2011) in order to generate conditions of lipotoxicity with or without addition of OAG or LPA.
FIG. 7A—The proportion of dead cells was estimated in the absence (Ctrl) or in the presence of palmitic acid (Palm), for growing concentrations of OAG and LPA.
The lipidic species are prepared in ethanol and then complexed with bovine serum albumen (BSA initially devoid of fatty acids) by incubation for one hour at 37° C. […]
The pancreatic β-cell cell line (BRIN-BD11) of rats is cultivated in an RPMI-1640 complete medium containing glucose at 11 mM and supplemented with 10% (v/v) of fetal calf serum (FCS), 2 mM of L-glutamine, 100 U/mL of penicillin and 100 μg/mL of streptomycin. […] In the case of the controlled conditions, identical quantities of BSA and ethanol were then used. […] After incubation at 10 minutes on ice, the samples thus obtained are analyzed by cytometry in flux. A Beckman Coulter EPICS XL MCL is used for quantification, an FL3 channel serves to detect emissions from PI interposed in the DNA and the analysis is done by means of the software EXPO32 ADC (Applied Cytometry Systems, V 1.1 build 207).

eIF2α = test: Western blotting of eIF2α phosphorylation (UPR) in BRIN-BD11 cells; type: cell-based, rat; settings: BRIN-BD11, palmitic acid 200 μM
Description: as §1
FIG. 7B—The rates of phosphorylation of eIF2α were also analyzed under different conditions by Western blotting method, in the absence (Ø) or in the presence of OAG or LPA and normalized with quantities of total eIF2α. […] A.U.: arbitrary units.
The cells BRIN-BD11 are seeded at a density of 0.5×10^5 cells/mL in T25 flasks for 24 h. As indicated here above, the complete medium is then replaced by an equivalent devoid of FCS but containing the lipid reagents of interest. […] In a second stage, the membranes are stripped with the buffer Re-Blot Plus-Strong (Millipore) and then probed a second time with total anti-eIF2α antibodies (CellSignalling (New EnglandBiolabs) diluted to 1/1000th. The analysis by densitometry of the relative abundance of the phosphorylated and non-phosphorylated forms of the protein eIF2α is done with the Fluor-S Multi-imager analysis system combined with the software program Quantify One (Biorad UK Ltd).

CCCCCCCC/C=C\CCCCCCCC(=O)OC[C@@H](O)COP(=O)(O)O [LPA, 1-oleoyl-sn-glycerol-3-phosphate]
restoration of growth of lipo-intoxicated hem1Δ yeasts (formation of colonies) (hem1Δ yeasts): restore the growth
apoptosis (proportion of dead cells) of pancreatic β-cells in the presence of saturated fatty acids [1]: prevent apoptosis
UPR induction (rate of phosphorylation of eIF2α normalized to total eIF2α) (eIF2α): reducing the induction rate of UPR

CCCCCCCC/C=C\CCCCCCCC(=O)OC[C@H](CO)OC(C)=O [OAG, 1-oleoyl-2-acetyl-sn-glycerol]
restoration of growth of lipo-intoxicated hem1Δ yeasts (formation of colonies) (hem1Δ yeasts): restore the growth
apoptosis (proportion of dead cells) of pancreatic β-cells in the presence of saturated fatty acids [1]: prevent apoptosis
UPR induction (rate of phosphorylation of eIF2α normalized to total eIF2α) (eIF2α): reducing the induction rate of UPR; also recorded: reduces the UPR
